Assays:
alpha-glucosidase = experiment: Kinetics of alpha-glucosidase inhibition; assay type: biochemical, Saccharomyces cerevisiae; details: for mode of alpha-glucosidase inhibition: decreases in Vmax without changes in Km; for Vmax: substrate PNPG 0.25-2.0 mM
[1] = system: advanced glycation end products (AGEs) formation (glycated BSA); experiment: In vitro advanced glycation end products; assay type: biochemical; details: read-out: IC50 ± S.D. advanced glycation end product inhibitory activity, 37 °C, seven days in the dark, mean ± SD, n = 3, NA = no inhibitory activity
[2] = target: alpha-amylase from Aspergillus oryzae (Aspergillus oryzae, UniProt P0C1B3); experiment: In vitro alpha-amylase inhibition assay; assay type: biochemical
[3] = target: alpha-glucosidase enzyme from Saccharomyces cerevisiae recombinant; experiment: In vitro alpha-glucosidase inhibition assay; assay type: biochemical; details: for IC50: read-out: IC50 ± S.D. alpha-glucosidase, mean ± SD, n = 3

IC50 [1] [µM] | IC50 [2] [µM] | IC50 [3] [µM] | SMILES | further results
– | – | – | C[C@H]1O[C@H](O[C@H]2[C@H](O)[C@@H](O)[C@@H](O[C@H]3[C@H](O)[C@@H](O)C(O)O[C@@H]3CO)O[C@@H]2CO)[C@H](O)[C@@H](O)[C@@H]1N[C@H]1C=C(CO)[C@@H](O)[C@H](O)[C@H]1O (stereo partly drawn) [Acarbose, acarbose, reference compound] | mode of alpha-glucosidase inhibition (alpha-glucosidase): non-competitive; Km (alpha-glucosidase; inhibitor 200 μM): 4.98 mM; Vmax (alpha-glucosidase; inhibitor 200 μM): 0.045 △OD/min; Km (alpha-glucosidase; inhibitor 400 μM): 4.96 mM; Vmax (alpha-glucosidase; inhibitor 400 μM): 0.030 △OD/min
168 ± 9.42 | 257 ± 9.87 | 173 ± 5.84 | COc1cc(CCc2cc(OC)c(O)c(OC)c2)ccc1O [Compound 2, moscatilin] | –
– | 280 ± 9.76 | 62.5 ± 2.85 | COc1cc2c(c(O)c1OC)-c1ccc(O)cc1CC2 [Compound 3, ephemeranthol A] | –
– | 332 ± 4.23 | 231 ± 11.3 | COc1cc(O)cc(CCc2ccc(O)c(OC)c2)c1 [Compound 4, gigantol] | –
– | – | 32.5 ± 1.04 | COc1cc(O)cc2ccc3cccc(O)c3c12 [Compound 5, moscatin] | IC50 ± S.D. alpha-amylase ([2]; mean ± SD, n = 3, NA = no inhibitory activity): did not inhibit alpha-amylase activity; fold greater alpha-glucosidase inhibitory potency than acarbose (Ki) (alpha-glucosidase; Ki relative to acarbose): approximately 9 fold; mode of alpha-glucosidase inhibition (alpha-glucosidase): non-competitive; Km (alpha-glucosidase; inhibitor 30 μM): 1.62 mM; Vmax (alpha-glucosidase; inhibitor 30 μM): 0.017 △OD/min; Km (alpha-glucosidase; inhibitor 60 μM): 1.66 mM; Vmax (alpha-glucosidase; inhibitor 60 μM): 0.011 △OD/min; fold lower alpha-glucosidase IC50 than acarbose ([3]; IC50 relative to acarbose): approximately 10 fold
– | 372.2 ± 2.74 | 63.89 ± 0.27 | COc1cc(O)c2c(c1)CCc1cc(O)ccc1-2 [Compound 6, lusianthridin] | –
411 ± 15 | 617 ± 11 | 422 ± 7 | Oc1ccc2c(c1)CCc1cc(O)cc(O)c1-2 [Compound 7, 2,4,7-trihydroxy-9,10-dihydrophenanthrene] | –

SMILES | IC50 [1] [µM] | IC50 [2] [µM] | IC50 [3] [µM] | further results
N=C(N)NN [Aminoguanidine, aminoguanidine, reference compound] | 327 ± 5.95 | – | – | –

From PMC11305242 (Heliyon, 2024)
